Drawing on patent publication US7655633B2, “Nitrogen-containing heterocyclic derivatives, medicinal compositions containing the same and medicinal use thereof” (Kissei Pharmaceutical Co., Ltd., priority 2002, dated 2010), this text covers IC50 for one compound.

The test concerns the target T1, human SGLT2 (Homo sapiens, UniProt P31639).
T1 construct: expressed in transfected cells
T1 sequence (P31639 1-672): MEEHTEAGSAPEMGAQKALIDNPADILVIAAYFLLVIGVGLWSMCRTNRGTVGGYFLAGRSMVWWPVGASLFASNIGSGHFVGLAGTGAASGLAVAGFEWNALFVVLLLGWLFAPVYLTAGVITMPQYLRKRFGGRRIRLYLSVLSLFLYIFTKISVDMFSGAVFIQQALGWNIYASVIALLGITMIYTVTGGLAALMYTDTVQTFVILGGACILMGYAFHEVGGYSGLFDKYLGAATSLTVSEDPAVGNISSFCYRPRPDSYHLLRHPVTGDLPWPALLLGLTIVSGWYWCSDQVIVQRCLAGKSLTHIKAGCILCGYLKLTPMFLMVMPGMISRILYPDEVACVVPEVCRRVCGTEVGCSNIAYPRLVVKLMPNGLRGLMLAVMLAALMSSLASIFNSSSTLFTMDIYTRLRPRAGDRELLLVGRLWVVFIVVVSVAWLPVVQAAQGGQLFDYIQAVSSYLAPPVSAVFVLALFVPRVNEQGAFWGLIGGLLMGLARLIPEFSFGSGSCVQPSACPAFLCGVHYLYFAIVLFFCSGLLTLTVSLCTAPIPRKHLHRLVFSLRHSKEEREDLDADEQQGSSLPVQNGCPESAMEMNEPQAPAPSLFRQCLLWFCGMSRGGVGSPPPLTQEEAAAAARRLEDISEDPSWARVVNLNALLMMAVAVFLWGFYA
Description: Assay for inhibitory effects on human SGLT2 activity (uptake of methyl-α-D-glucopyranoside in CS2-5E cells). The format is cell-based. Particulars: inhibition of 14C-labeled α-MG (1 mM) uptake, CHO-K1 cells stably expressing human SGLT2 (CS2-5E), 37° C., 1 hour. The procedure:
Assay for Inhibitory Effects on Human SGLT2 Activity
1) Cloning and Construction of the Vector Expressing Human SGLT2
The cDNA library was prepared for PCR amplification by reverse transcription from total RNA deprived from human kidney (Ori gene) using oligo-dT as a primer. Using this cDNA library as a template, the base sequence coding 2 to 2039 bp of human SGLT2 (ACCESSION: M95549, M95299), which was reported by R. G. Wells et al., was amplified by PCR method and inserted into the multi-cloning site of pcDNA3.1(−) (Invitrogen). The DNA sequence inserted was perfectly matched to the previously reported sequence.
2) Establishment of Cell Line Stably Expressing Human SGLT2
The expression vector of human SGLT2 was digested by Sca I into a linear DNA. The linear DNA was transfected into CHO-K1 cells by means of lipofection (Effectene Transfection Reagent: QIAGEN). Neomycin resistant cell lines were obtained by culture in the medium containing 1 mg/mL of G418 (LIFE TECHNOLOGIES), and then the activity against the uptake of methyl-α-D-gluco-pyranoside was measured by the method described below. […] Afterward, CS2-5E cells were cultured in the presence of G418 at 200 μg/mL. […]
CS2-5E cells were seeded into a 96-well culture plate at a density of 3×10^4 cells/well and cultured for 2 days, and were used in the uptake assay. […] Radioactivity was measured by means of scintillation counter (Packard). […]

As to `Cc1cc(C)c(Cc2ccc(C)c(F)c2)c(O[C@@H]2O[C@H](CO)[C@@H](O)[C@H](O)[C@H]2O)n1` [Example 1, 2-(β-D-Glucopyranosyloxy)-3-(3-fluoro-4-methylbenzyl)-4,6-dimethylpyridine], half-maximal inhibition (IC50) required 3 nM. In other words, the single-digit nanomolar range.
